In article PMC8589634 (The Journal of Prevention of Alzheimer's Disease, 2021):

What was measured:
[1] = tested on: patients with mild or mild/moderate AD; assay: LMTM Phase 3 exposure groups against historical placebo meta-analysis; type: in vivo, human; settings: 8mg/day
[2] = tested on: healthy volunteers
[3] = tested on: healthy volunteers; assay: Brain spectroscopy after NR supplementation; type: in vivo, human; settings: two weeks of NR supplementation
[4] = tested on: AD and PD patients; assay: Posiphen phase 2a studies in AD and PD; type: in vivo, human
[5] = tested on: patients with agitation in Alzheimer’s dementia; assay: Brexpiprazole phase 3 studies, post-hoc CMAI-IPA; type: in vivo, human
[6] = tested on: patients with agitation in Alzheimer’s dementia; assay: Brexpiprazole phase 3 pooled CGI-S and CMAI responder analysis; type: in vivo, human
[7] = tested on: PSEN1-AD neurons; settings: screen of existing drug library; earlier work of the authors; cited from earlier work
[8] = tested on: patients with MCI or PD; assay: Cerebral blood flow by pCASL MRI after clenbuterol; type: in vivo, human
[9] = tested on: patients with MCI or PD; assay: Safety and tolerability of single doses of clenbuterol; type: in vivo, human
[10] = tested on: patients with AD and agitation/aggression; assay: Lit-AD randomized trial of low-dose lithium; type: in vivo, human
[11] = tested on: subjects with moderate AD; assay: Masupirdine phase-2 trial, NPI-12 psychosis subgroup analysis; type: in vivo, human
[12] = tested on: subjects with moderate AD; assay: Masupirdine phase-2 trial, NPI-12 agitation/aggression subgroup analysis; type: in vivo, human
[13] = tested on: patients with PD psychosis and PD dementia; assay: HARMONY trial, post hoc PD dementia subgroup; type: in vivo, human
[14] = tested on: patients with mild-to-moderate AD; assay: Open-label study of simufilam, interim analysis; type: in vivo, human
[15] = tested on: AD patients; settings: cited from earlier work
[16] = tested on: GRN mutation carriers; settings: repeat administration; earlier Phase 2 study; cited from earlier work
[17] = first dose 80µg, 3 hours post-dose, n=8
[18] = second visit, 1mg nadolol 2.5 hours before clenbuterol, n=4
[19] = second visit, clenbuterol monotherapy, n=4
[20] = 80µg single dose, patients affected

CN(C)c1ccc2c(c1)Sc1cc(N(C)C)ccc1N2.CS(=O)(=O)O.CS(=O)(=O)O [LMTM, leuco-methylthionine dihydromesylate]
decline on ADAS-cog11 over 12 months ([1]; above-threshold plasma levels): 1.58±0.46 units | decline on ADAS-cog11 over 12 months ([1]; below-threshold exposure): 4.74±0.60 units

CC(=O)Nc1nc(F)c(CN2CC[C@H](OCc3noc(C)n3)C[C@@H]2C)s1 [LY3372689]
food effect on AUC (3 mg QD, fed vs fasted): minimal effect | food effect, decrease of Cmax (3 mg QD, fed vs fasted): 43% | food effect, increase of tmax (3 mg QD, fed vs fasted): 5 h | exposure (AUC and Cmax) vs dose (SAD 0.15–16 mg and MAD 1, 3, 7 mg): generally dose-proportional | renal clearance (single or multiple dosing): not a major contributor | maximum tolerated dose ([2]; SAD): not achieved | tolerability ([2]; up to the highest dose in each study): generally well tolerated

NC(=O)c1ccc[n+]([C@@H]2O[C@H](CO)[C@@H](O)[C@H]2O)c1 [NR, Nicotinamide Riboside]
CK/ATPase activity and GSH levels ([3]; N=4): Only a small difference | brain NAD+ and redox ratio (RR) ([3]; N=4, preliminary): elevations

CN1CC[C@]2(C)c3cc(OC(=O)Nc4ccccc4)ccc3N(C)[C@H]12 [Posiphen]
Aβ42/40 ratio ([4]; AD patients): improved | axonal health as measured by NfL ([4]; AD patients): improved axonal health | sAPPα, sAPPβ, Tau, p-Tau ([4]; AD patients): reduced | ADAS-Cog 11 ([4]; AD patients, 80 mg QD for 25 +/− 2 days, vs baseline): statistically significant improvements | WAIS coding ([4]; AD patients, 80 mg QD, vs baseline): statistically significant improvements | UPDRS, all 4 parts ([4]; PD patients): strong trends | WAIS coding test ([4]; PD patients): statistically significant improvements | inflammation ([4]; treated patients, to baseline or to placebo): statistically significantly lowered

O=c1ccc2ccc(OCCCCN3CCN(c4cccc5sccc45)CC3)cc2[nH]1 [brexpiprazole]
CMAI-IPA, adjusted mean difference vs placebo ([5]; Study 1, 2 mg/day (n=138) vs placebo (n=131), baseline to Week 12, MMRM): −2.34 | CMAI-IPA, adjusted mean difference vs placebo ([5]; Study 2, titrated to 2 mg/day (n=77) vs placebo (n=74), Week 12, MMRM): −2.79 | patients with CGI-S score of 1 or 2 ([6]; 2 mg/day, week 12, 140/237): 59.1% | patients with improvement in CMAI of at least 10 points ([6]; 2 mg/day, week 12, 177/237): 74.7% | patients with improvement on CGI-S of at least 1 point ([6]; 2 mg/day, week 12, 188/237): 79.3% | difference vs placebo, CGI-S score of 1 or 2 ([6]; week 12, p = 0.0033): 13.5% | difference vs placebo, CMAI improvement of at least 10 points ([6]; week 12, p = 0.0550): 8.0% | difference vs placebo, CGI-S improvement of at least 1 point ([6]; week 12, p=0.0048): 11.4%

CC(C)C[C@H]1C(=O)N2CCC[C@H]2[C@]2(O)O[C@](NC(=O)[C@@H]3C=C4c5cccc6[nH]c(Br)c(c56)C[C@H]4N(C)C3)(C(C)C)C(=O)N12 [bromocriptine]
modification of Aβ production [7]: most potent modifier of Aβ production

CC(C)(C)NCC(O)c1cc(Cl)c(N)c(Cl)c1 (centres unmarked) [clenbuterol]
increase in CBF, amygdala [8, 17]: 14.3% | increase in CBF, hippocampus [8, 17]: 20.3% | increase in CBF, thalamus [8, 17]: 13.1% | Mean Relative Difference in perfusion, hippocampus [8, 18]: 13.7±5.9% | Mean Relative Difference in perfusion, thalamus [8, 18]: 16.2±5.2% | Mean Relative Difference in perfusion, amygdala [8, 19]: 8.1±11.5% | Mean Relative Difference in perfusion, hippocampus [8, 19]: 18.6±15.1% | Mean Relative Difference in perfusion, thalamus [8, 19]: 21.0±10.8% | increase in heart rate, mean [SD] ([9]; 80µg single dose): 12.9 [8.2] bpm | palpitations [9, 20]: 1/8 | tremor [9, 20]: 4/8 | safety and tolerability ([9]; single doses of 80µg): safe and well tolerated

O=C([O-])[O-].[Li+].[Li+] [lithium, lithium carbonate]
moderate or marked improvement (CGI) ([10]; 12 weeks): 36.8% | proportion of responders ([10]; 30% reduction in NPI agitation/aggression plus psychosis and CGI much or very much improved, 12 weeks): 31.6% | reduction vs placebo in patients with high Young Mania Rating Scale scores (β) ([10]; 95%CI 1.18 to 8.94): 5.06 | improvement on NPI delusions and irritability/lability ([10]; exploratory analyses): greater than placebo | change in NPI agitation/aggression ([10]; lithium carbonate 150–600 mg daily, 12 weeks, linear mixed effects model): not significantly superior to placebo | safety outcomes ([10]; vs placebo): did not differ significantly from placebo

COc1ccc2c(c1)c(CN1CCN(C)CC1)cn2S(=O)(=O)c1ccccc1Br [masupirdine]
NPI-12 psychosis score vs placebo ([11]; 50 mg, Week 4 & 13, p<0.05, MMRM): significant reduction | NPI-12 psychosis score vs placebo ([11]; 100 mg, Week 26, p<0.1): trend | effect size (Cohen’s d), agitation/aggression ([12]; 50 mg, end of 26 weeks): 0.66 | NPI-12 agitation/aggression scores ([12]; 50 & 100 mg arms, Week 13, MMRM): statistically significant (p<0.01) reduction

CC(C)(C)NCC(O)COc1cccc2c1CC(O)C(O)C2 (centres unmarked) [nadolol]
peripheral cardiovascular and metabolic effects of clenbuterol ([9]; 1mg nadolol 2.5 hours before clenbuterol): mostly eliminated

CC(C)COc1ccc(CNC(=O)N(Cc2ccc(F)cc2)C2CCN(C)CC2)cc1 [pimavanserin]
sustained response at weeks 8 and 12 ([13]; 34 mg, open-label period, 36 of 49): 73.5% | patients who met relapse criteria ([13]; at the time the study was stopped, n=16): 1 | any TEAE ([13]; double-blind period): 31.3% | serious TEAEs ([13]; double-blind period): No patients | risk of psychosis relapse, hazard ratio vs placebo ([13]; double-blind period, Cox regression, 95% CI 0.016, 0.166): 0.052 | any TEAE ([13]; open-label period): 46.9% | decreased appetite ([13]; open-label period): 8.2% | fall ([13]; open-label period): 6.1% | insomnia ([13]; open-label period): 8.2% | serious TEAE ([13]; open-label period): 10.2% | somnolence ([13]; open-label period): 8.2% | urinary tract infection ([13]; open-label period): 6.1% | weight decreased ([13]; open-label period): 8.2% | MMSE mean change from baseline ([13]; open-label, baseline to week 12, SE 0.66): 0.3 | ESRS-A mean change from baseline ([13]; open-label, baseline to week 12, SE 0.74): −1.7 | complete response (SAPS-H+D score=0) ([13]; week 12, of 38 patients evaluated): 42.1%

CN1CCC2(CC1)NCC(=O)N2Cc1ccccc1 [simufilam]
ADAS-Cog11 mean change from baseline to Month 12 ([14]; 100 mg twice-daily oral, first 50 subjects, open-label): −3.23 ± 6.25 points | safety and tolerability ([14]; 12 months): safe and well-tolerated | subjects with no neuropsychiatric symptoms (NPI) ([14]; 12 months, baseline 34%): over 50% | ADAS-Cog11 score, mean ([14]; Month 12, Day 1 mean 16.73 ± 7.86): 13.51 ± 9.20 | subjects with improved ADAS-Cog11 scores ([14]; baseline to Month 12, 50 subjects): 68% | ADAS-Cog11 median change ([14]; baseline to Month 12, first 50 subjects): −4.0 points

Sola: monoclonal antibody comparator (Expedition 1–3)
ADAS-Cog effect size, slowing ([15]; Expedition 1+2 mild individuals): 34.8% | ADCS-ADL effect size, slowing ([15]; Expedition 3): 15.4% | CDR-SB effect size, slowing ([15]; Expedition 3): 15.4%

B1: AL001: human monoclonal IgG1 antibody that blocks and downregulates Sortilin (antibody, chains of the INN, looked up, V domains shown)
VH: QVQLQESGPGLVKPSETLSLTCAVSGYSISSGYYWGWIRQPPGKGLEWIGTIYHSGSTYYNPSLKSRVTISVDTSKNQFSLKLSSVTAADTAVYYCARQGSIKQGYYGMDVWGQGTTVTVSS
VL: DIVMTQSPLSLPVTPGEPASISCRSSQSLLRSTGYNYLDWYLQKPGQSPQLLIYLGSNRASGVPDRFSGSGSGTDFTLKISRAEAEDVGVYYCMQQQEAPLTFGGGTKVEIK
CSF PGRN levels [16]: normalize CSF PGRN levels
